Results published in patent US20230321101A1, “METHODS AND USES OF HALOFUGINONE” (The Regents of the University of California, priority 2020, published 2023).
Entries after “also recorded” stand apart in the source; their conditions may differ. Where two headings read alike, the source gives them in different places.

Assays:
ZIKV (Zika virus) = assay: ZIKV antiviral immunofluorescence assay in SH-SY5Y cells; format: cell-based
Method: (§1) Experimental Procedure. The antiviral activity of 8 dilutions of each compound was explored by adding the drug to the assay cells 2 h after infection with the different viruses. Virus and compounds were left on the cells for the entire duration of the experiment (28 h for Zika virus and 24 h for all other viruses). The cytotoxicity of the same range of concentrations of compounds was determined by LDH release assay in the same cell lines.
(§2) Cell plating. Cells were detached and counted following SOP-RA 003 and SOP-RA 004. Count was recorded in the Cell Count Logbook, Volume 1. For each virus four plates were seeded, two for the antiviral assay and two for the cytotoxicity assay. Cells were seeded in 100 μl/well of complete media at the following densities: • Huh7: 8,000 cells/well (Dengue) • SH-SY5Y: 10,000 cells/wells (Zika) • HeLa Tzmbl: 8,000 cells/well (HIV)
(§3) Compounds dilutions. The 22.1 mM stocks were further diluted to 1 mM in DMSO by adding 211 μl of DMSO to 10 μl of compound. Three serial dilutions were prepared in different media for different viruses/cells. For each dilution, drugs were prepared at twice the final concentration in 50 μl volume, because they are diluted to the final concentration by an equal volume of virus or media.
(§4) Infection. Cells were infected in 50 μl of supplemented media/well at the following multiplicity of infection (MOI): • DENV-2, MOI 1 • ZIKV, MOI 5 • HIV, MOI 0.5
(§5) After removing culture media from cells, 50 μl of virus dilution were added to all wells except Column 11 (uninfected control), where the same volume of supplemented media was added. […]
(§6) Infectivity readout. […] The primary antibodies were detected with an Alexa-488 conjugate secondary antibody (Life Technologies, A11001), and nuclei were stained with Hoechst. Images were acquired on a CellInsight CX5 high content platform (Thermo Scientific) using a 4× objective, and percentage infection calculated using CellInsight CX5 software (infected cells/total cells×100).
(§7) Determination of % Inhibition—IF assay. Normalized percentages of inhibition were calculated using the following formula: […]

HIV-1 = HIV-1 antiviral immunofluorescence assay in HeLa Tzmbl cells; format: cell-based; settings: HeLa Tzmbl
Method: as §1, §2, §3, §4, §5, §6, §7

DENV-2 (Dengue) = assay: DENV-2 antiviral immunofluorescence assay in Huh7 cells; format: cell-based
Method: as §1, §2, §3, §4, §5, §6, §7

authentic SARS-CoV-2 = assay: microbe, parasite or virus in culture; format: cell-based
Vero E6 cells = assay: Cell number of Vero E6 cells treated for 24 h; format: cell-based, African green monkey; settings: Vero E6, 24 h
Method: FIG. 32A and FIG. 32B. […] A-B, Measurement of authentic SARS-CoV-2 infection and cell number in Vero E6 cells treated with (A) halofuginone (HF) or (B) the 2R,3S-(+) enantiomer for 24 h. Data shown as mean±S.D.

[1] = system: recombinant SARS-CoV-2 spike RBD protein binding to Hep3B cells; settings: for decrease of SARS-CoV-2 RBD binding compared to excipient control (DMSO): 18 h; for effect on halofuginone-induced reduction in spike protein binding: co-incubated with halofuginone
[2] = system: cell surface heparan sulfate of Hep3B cells; assay: Heparan sulfate presentation by anti-HS mAb 10E4 staining of Hep3B cells; format: cell-based, human; settings: for effect on halofuginone-induced reduction in heparan sulfate production (10E4 binding): co-incubated with halofuginone
[3] = ProSA at 50 μM, halofuginone 500 nM
[4] = Severe acute respiratory syndrome coronavirus 2, Vero C1008, read-out: IC50 of SARS-CoV-2 infection

Question: What does the source list for `CC(C)(C)OC(=O)N1CCCC(O)[C@H]1CC(=O)Cn1cnc2cc(Br)c(Cl)cc2c1=O` (stereo partly shown)?
Answer: antiviral activity against ZIKV (ZIKV (Zika virus)): did not display antiviral activity; antiviral activity against HIV-1 (HIV-1): did not display antiviral activity; antiviral activity against DENV-2 (DENV-2 (Dengue); Huh7): did not display antiviral activity

Question: For `O=C(CC1NCCCC1O)Cn1cnc2cc(Br)c(Cl)cc2c1=O` (single isomer, unassigned) [2S,3R-(−)enantiomer], which “effect on authentic SARS-CoV-2 infection” value (authentic SARS-CoV-2; Vero E6) is on record?
Answer: Its value is “No inhibition was observed”.

Question: Which results are given for `O=C(C[C@H]1NCCC[C@@H]1O)Cn1cnc2cc(Br)c(Cl)cc2c1=O` [2R,3S-(+) halofuginone]?
Answer: effect on authentic SARS-CoV-2 infection (authentic SARS-CoV-2; Vero E6): inhibit SARS-CoV-2 infection; IC50 (authentic SARS-CoV-2; Vero E6, read-out: IC50 of SARS-CoV-2 infectivity, enantiomer comparison): 12 nM; cell proliferation (cell number) (Vero E6 cells): inhibit SARS-CoV-2 infection and cell proliferation; effect on spike (RBD) protein binding [1]: inhibited HS production and authentic SARS-CoV-2 spike RBD protein binding; effect on heparan sulfate presentation (10E4 binding) [2]: inhibited HS production

Question: How did the “effect on heparan sulfate presentation (10E4 binding)” value [2] turn out when `Nc1ncn([C@@H]2O[C@H](CO)[C@@H](O)[C@H]2O)c(=O)n1` [5-Azacytidine] was run?
Answer: The value was “reduced heparan sulfate presentation”.

Question: Which “effect on heparan sulfate presentation (10E4 binding)” value [2] does the source give for `Nc1ncn([C@H]2C[C@H](O)[C@@H](CO)O2)c(=O)n1` [5-Azadeoxycitidine] here?
Answer: Its value is “reduced heparan sulfate presentation”.

Question: How did the “effect on heparan sulfate presentation (10E4 binding)” value [2] turn out when `Nc1ncnc2c1c(I)cn2[C@@H]1O[C@H](CO)[C@@H](O)[C@H]1O` [5-Iodotubercidin] was run?
Answer: The value was “reduced heparan sulfate presentation”.

Question: Which “effect on heparan sulfate presentation (10E4 binding)” value [2] does the source give for `CNC(=O)Nc1ccc2c(c1)CC[C@@]21OC(=O)N(CC(=O)N(Cc2ccc(F)cc2)[C@@H](C)C(F)(F)F)C1=O` [A-485] here?
Answer: Its value is “reduced heparan sulfate presentation”.

Question: `O=C(/C=C/c1cccc(S(=O)(=O)Nc2ccccc2)c1)NO` [Belinostat] was tested. Which “effect on spike (RBD) protein binding” value [1] did it give?
Answer: Its value is “reduced spike protein by more than two-fold”.

Question: What about the “decrease of SARS-CoV-2 RBD binding compared to excipient control (DMSO)” value ([1]; 5 μM) of the same compound?
Answer: The value was about 50%.

Question: And the “effect on heparan sulfate presentation (10E4 binding)” value [2]?
Answer: Its value is “increased 10E4 staining”.

Question: `c1nn(C2CCOCC2)cc1Nc1ncc2nnn(-c3ccc4cn[nH]c4c3)c2n1` [GCN2-IN-1] was tested. Which “effect on halofuginone-induced reduction in spike protein binding” value [1] did it give?
Answer: The value was “reversed the halofuginone induced reduction in 10E4 or spike protein binding”.

Question: And the “effect on heparan sulfate presentation (10E4 binding)” value [2]?
Answer: Its value is “reduced in heparan sulfate production; also recorded: reduced 10E4 and spike RBD binding almost to the same extent as halofuginone”.

Question: What about the “effect on halofuginone-induced reduction in heparan sulfate production (10E4 binding)” value [2] of the same compound?
Answer: Its value is “reversed the halofuginone induced reduction in 10E4 or spike protein binding”.

Question: `Cn1cc(-c2ccc3c(c2)CCN3C(=O)Cc2cccc(C(F)(F)F)c2)c2c(N)ncnc21` [GSK2606414] was tested. Which “effect on spike (RBD) protein binding” value [1] did it give?
Answer: Its value is “Neither PERKi nor ISRIB affected 10E4 or spike RBD binding”.

Question: What about the “effect on halofuginone-induced reduction in spike protein binding” value [1] of the same compound?
Answer: Its value is “reversed the halofuginone induced reduction in 10E4 or spike protein binding”.

Question: And the “effect on halofuginone-induced reduction in spike protein binding” value ([1]; listed as PERKi)?
Answer: The value was “unable to attenuate the halofuginone-induced reduction in heparan sulfate production and Spike protein binding”.

Question: What about the “effect on heparan sulfate presentation (10E4 binding)” value [2] of the same compound?
Answer: Its value is “Neither PERKi nor ISRIB affected 10E4 or spike RBD binding”.

Question: What about the “effect on halofuginone-induced reduction in heparan sulfate production (10E4 binding)” value [2] of the same compound?
Answer: Its value is “reversed the halofuginone induced reduction in 10E4 or spike protein binding”.

Question: And the “effect on halofuginone-induced reduction in heparan sulfate production (10E4 binding)” value ([2]; listed as PERKi)?
Answer: Its value is “unable to attenuate the halofuginone-induced reduction in heparan sulfate production”.

Question: Which “effect on spike (RBD) protein binding” value [1] does the source give for `O=C(COc1ccc(Cl)cc1)NC1CCC(NC(=O)COc2ccc(Cl)cc2)CC1` (stereo not shown) [ISRIB] here?
Answer: Its value is “Neither PERKi nor ISRIB affected 10E4 or spike RBD binding”.

Question: And the “effect on heparan sulfate presentation (10E4 binding)” value [2]?
Answer: Its value is “Neither PERKi nor ISRIB affected 10E4 or spike RBD binding”.

Question: What about the “effect on halofuginone-induced reduction in heparan sulfate production (10E4 binding)” value [2] of the same compound?
Answer: The value was “unable to attenuate the halofuginone-induced reduction in heparan sulfate production; also recorded: nor ISRIB reversed the halofuginone induced reduction in 10E4 or spike protein binding”.

Question: Which results are given for `CC(C)(C)OC(=O)N1CCC[C@H](O)[C@H]1CC(=O)Cn1cnc2cc(Br)c(Cl)cc2c1=O` [MAZ1310]?
Answer: effect on authentic SARS-CoV-2 infection (authentic SARS-CoV-2; Vero E6): did not have any activity; effect on spike (RBD) protein binding [1]: had no effect; effect on heparan sulfate presentation (10E4 binding) [2]: had no effect

Question: With `Nc1ncnc2c1ncn2[C@@H]1O[C@H](COS(=O)(=O)NC(=O)[C@@H]2CCCN2)[C@@H](O)[C@H]1O` [ProSA, prolyl-sulfamoyl adenosine] as the compound, how does the “effect on authentic SARS-CoV-2 infection” value (authentic SARS-CoV-2; Vero E6) read?
Answer: Its value is “inhibited authentic SARS-CoV-2 infection of Vero E6 cells; also recorded: inhibit infection by authentic SARS-CoV-2 when provided at higher doses”.

Question: And the “effect on Spike protein binding” value ([1]; 1 μM)?
Answer: The value was “unable to inhibit heparan sulfate inhibition and Spike protein binding”.

Question: And the “effect on spike RBD binding” value [1, 3]?
Answer: The value was “prevented HS presentation and spike RBD binding to similar levels as treatment with halofuginone”.

Question: What about the “effect on heparan sulfate presentation” value ([2]; 1 μM) of the same compound?
Answer: The value was “unable to inhibit heparan sulfate inhibition and Spike protein binding”.

Question: What about the “effect on HS presentation (mAb 10E4 stain)” value [2, 3] of the same compound?
Answer: Its value is “prevented HS presentation and spike RBD binding to similar levels as treatment with halofuginone”.

Question: Which IC50 (authentic SARS-CoV-2; [4]) does the source give for `CCC(CC)COC(=O)[C@H](C)N[P@](=O)(OC[C@H]1O[C@@](C#N)(c2ccc3c(N)ncnn23)[C@H](O)[C@@H]1O)Oc1ccccc1` [Remdesivir] here?
Answer: The IC50 was 8000 nM.

Question: For `C/C=C1\NC(=O)[C@H]2CSSCC/C=C/[C@H](CC(=O)N[C@H](C(C)C)C(=O)N2)OC(=O)[C@H](C(C)C)NC1=O` [Romidepsin], which “decrease of SARS-CoV-2 RBD binding compared to excipient control (DMSO)” value ([1]; 1 μM) is on record?
Answer: Its value is about 50%.

Question: `Nc1ncnc2c1ncn2C1OC(COS(=O)(=O)NC(=O)[C@@H](N)CO)[C@@H](O)[C@H]1O` (stereo partly shown) [SerSA, seryl-sulfamoyl adenosine] was tested. Which “effect on authentic SARS-CoV-2 infection” value (authentic SARS-CoV-2; Vero E6) did it give?
Answer: The value was “Neither of these AARS inhibitors were able to significantly attenuate viral replication”.

Question: What about the “effect on spike (RBD) protein binding” value [1] of the same compound?
Answer: The value was “Neither of these AARS inhibitors were able to significantly attenuate”.

Question: `COc1cc2c(NC3CCN(C(C)C)CC3)nc(C3CCCCC3)nc2cc1OCCCN1CCCC1` [UNC0638] was tested. Which “effect on heparan sulfate presentation (10E4 binding)” value [2] did it give?
Answer: Its value is “increased the total amount of heparan sulfate”.

Question: Which results are given for `C[C@@H]1C[C@H](C)C[C@H](C)[C@@H](O)CC(=O)O[C@H]([C@@H]2CCC[C@H]2C(=O)O)C/C=C/C=C(/C#N)[C@H](O)[C@@H](C)C1` [borrelidin]?
Answer: effect on authentic SARS-CoV-2 infection (authentic SARS-CoV-2; Vero E6): Neither of these AARS inhibitors were able to significantly attenuate viral replication; effect on spike (RBD) protein binding [1]: Neither of these AARS inhibitors were able to significantly attenuate; effect on spike (RBD) protein binding ([1]; listed as Borrelidin): not SARS-CoV-2 Spike RBD protein binding; effect on heparan sulfate presentation (10E4 binding) [2]: Inhibits HS production

Question: Which IC50 (authentic SARS-CoV-2; [4]) does the source give for `CCN(CC)CCCC(C)Nc1ccnc2cc(Cl)ccc12` (stereo not shown) [chloroquine] here?
Answer: Its IC50 is 1900 nM.

Question: For `O=c1c2cc(Cl)c(Br)cc2ncn1C[C@H](O)C[C@H]1NCCC[C@@H]1O` [halofuginol], which “effect on authentic SARS-CoV-2 infection” value (authentic SARS-CoV-2; Vero E6) is on record?
Answer: The value was “inhibited authentic SARS-CoV-2 infection of Vero E6 cells; also recorded: inhibit infection by authentic SARS-CoV-2 when provided at higher doses”.

Question: And the “antiviral activity against ZIKV” value (ZIKV (Zika virus))?
Answer: Its value is “antiviral activity only against HIV-1”.

Question: What about the “effect on spike (RBD) protein binding” value [1] of the same compound?
Answer: The value was “significantly decreased 10E4 and spike RBD binding”.

Question: What about the “effect on heparan sulfate presentation (10E4 binding)” value [2] of the same compound?
Answer: The value was “significantly decreased 10E4 and spike RBD binding”.

Question: And the EC50 (HIV-1; MOI 0.5, drug added 2 h after infection, 24 h, read-out: EC50 HIV-1)?
Answer: The EC50 was 344 nM.

Question: What about the “inhibition of DENV-2” value (DENV-2 (Dengue); Huh7, highest concentration tested (1000 nM)) of the same compound?
Answer: Its value is about 60%.
